Source: patent US10272081B2, “SHIP1 modulators and methods related thereto” (Aquinox Pharmaceuticals (Canada) Inc., priority 2013, dated 2019)

Target: T1, His-hSHIP1 enzyme (Homo sapiens, UniProt Q92835)
T1 construct: His
T1 sequence (Q92835 1-1189): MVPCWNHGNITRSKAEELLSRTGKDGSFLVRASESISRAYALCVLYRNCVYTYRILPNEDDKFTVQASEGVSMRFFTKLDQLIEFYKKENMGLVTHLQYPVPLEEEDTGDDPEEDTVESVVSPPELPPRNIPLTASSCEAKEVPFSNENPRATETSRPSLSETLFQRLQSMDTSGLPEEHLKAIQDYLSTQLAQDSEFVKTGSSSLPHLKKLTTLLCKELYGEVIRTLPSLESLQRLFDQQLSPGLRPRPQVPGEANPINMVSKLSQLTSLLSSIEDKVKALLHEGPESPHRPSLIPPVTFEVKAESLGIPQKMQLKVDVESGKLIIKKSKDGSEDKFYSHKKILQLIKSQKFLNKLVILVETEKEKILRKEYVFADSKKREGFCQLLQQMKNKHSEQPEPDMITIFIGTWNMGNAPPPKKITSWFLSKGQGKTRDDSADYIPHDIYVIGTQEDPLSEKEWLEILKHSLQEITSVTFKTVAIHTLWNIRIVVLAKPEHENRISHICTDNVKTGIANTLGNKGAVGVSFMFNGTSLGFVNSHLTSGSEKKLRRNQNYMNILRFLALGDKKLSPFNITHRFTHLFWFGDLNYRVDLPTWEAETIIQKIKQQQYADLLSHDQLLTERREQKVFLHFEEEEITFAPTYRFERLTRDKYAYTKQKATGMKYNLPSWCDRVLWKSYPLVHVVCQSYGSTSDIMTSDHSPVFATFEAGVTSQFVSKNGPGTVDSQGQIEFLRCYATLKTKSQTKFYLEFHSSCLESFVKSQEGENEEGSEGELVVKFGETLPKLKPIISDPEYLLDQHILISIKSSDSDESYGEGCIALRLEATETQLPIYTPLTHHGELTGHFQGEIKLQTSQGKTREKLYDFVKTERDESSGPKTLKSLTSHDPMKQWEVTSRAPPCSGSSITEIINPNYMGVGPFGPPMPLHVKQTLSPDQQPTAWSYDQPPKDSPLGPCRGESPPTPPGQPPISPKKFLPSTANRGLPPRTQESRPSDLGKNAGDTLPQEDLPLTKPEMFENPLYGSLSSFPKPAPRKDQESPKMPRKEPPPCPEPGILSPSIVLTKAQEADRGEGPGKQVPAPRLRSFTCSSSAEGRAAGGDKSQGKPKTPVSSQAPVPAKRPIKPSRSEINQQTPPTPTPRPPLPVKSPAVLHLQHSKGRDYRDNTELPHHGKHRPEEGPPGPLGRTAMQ
Test: His-hSHIP1 activity, approach 1 (phosphate release from IP4, Biomol Green)
Format: biochemical
Conditions: activation of His-hSHIP1; IP4 50 μM; test compound 0-300 μM; no asterisk in Table 2
Experimental: (§1) Test compounds are dissolved in 95% ethanol to form stock solutions. Before screening, the stock solutions are diluted with Phosphatase Assay Buffer (20 mM Tris-HCL, 10 mM MgCl2 pH 7.5, 0.02% Tween 20) to form working assay solutions that contain 10% ethanol. The assay is carried out on 96-well microtiter plates using a modified procedure of that reported by Ong et al., Blood 110, 1942-1949, 2007 and Yang et al., Org Lett 7, 1073-1076, 2005, both of which references are incorporated herein by reference in their entirety.
Data were generated by one of two variant methods. Test compounds are screened by one of two approaches described as follows. In the first approach, each reaction contains 5 μL of His-hSHIP1 enzyme (5-20 ng), 10 μL of the substrate, 1,3,4,5-inositol tetrakisphosphate (IP4; 50 μM final), 5 μL of Phosphatase Assay Buffer, and 5 µL of test compound at various concentrations in 10% ethanol (0-300 μM final). Control blanks are also prepared by replacing His-hSHIP1 enzyme, IP4, or test compounds with Phosphatase Assay Buffer. After adding the reaction components in a 96-well microtiter plate on ice, the reaction is mixed by briefly shaking the plate vigorously. The reaction is then incubated at 37° C. for 15 min with gentle shaking followed by addition of 100 μL of Biomol Green Reagent (BIOMOL, Pa., USA) to terminate the reaction. The free phosphate released from IP4 by His-hSHIP1 binds to the Biomol Green Reagent, which turns the dye to green color. After incubating the mixture for 20 min at room temperature for color development, the absorbance is read with SpectraMax Plus 96-well plate reader (Molecular Devices, Sunnyvale, Calif., USA) at a wavelength of 650 nm.

| SMILES | Scoring, Approach 1 (% increase relative to background) |
| --- | --- |
| COc1cc(OC)cc(C(=O)C[C@@H]2[C@@]3(C)CCCC(C)(C)[C@@H]3CC[C@@]2(C)O)c1 [Compound No. 45, 2-[(1R,2R,4aS,8aS)-2-hydroxy-2,5,5,8a-tetramethyl-decahydronaphthalen-1-yl]-1-(3,5-dimethoxyphenyl)ethan-1-one] | ++ (50 ≤ x < 65) |
| COc1cc(OC)cc(C(=O)C[C@H]2[C@@H](C)CC[C@H]3C(C)(C)CCC[C@]23C)c1 [Compound No. 46, 2-[(1S,2S,4aS,8aR)-2,5,5,8a-tetramethyl-decahydronaphthalen-1-yl]-1-(3,5-dimethoxyphenyl)ethan-1-one] | ++ (50 ≤ x < 65) |
| COc1cc(O)cc(C(=O)C[C@H]2[C@@H](C)CC[C@H]3C(C)(C)CCC[C@]23C)c1 [Compound No. 47, 2-[(1S,2S,4aS,8aR)-2,5,5,8a-tetramethyl-decahydronaphthalen-1-yl]-1-(3-hydroxy-5-methoxyphenyl)ethan-1-one] | ++ (50 ≤ x < 65) |
| COc1cc(OC)cc(C(=O)[C@@H]2[C@@]3(C)CCCC(C)(C)[C@@H]3CC[C@@]2(C)O)c1 [Compound No. 50, (1R,2R,4aS,8aS)-1-[(3,5-dimethoxyphenyl)carbonyl]-2,5,5,8a-tetramethyl-decahydronaphthalen-2-ol] | ++ (50 ≤ x < 65) |
| COc1cc(OC)cc(C(=O)[C@H]2C(C)=CC[C@H]3C(C)(C)CCC[C@]23C)c1 [Compound No. 51, [(1S,4aS,8aS)-2,5,5,8a-tetramethyl-1,4,4a,5,6,7,8,8a-octahydronaphthalen-1-yl](3,5-dimethoxyphenyl)methanone] | ++ (50 ≤ x < 65) |
| COc1cc(OC)cc(C(=O)[C@H]2[C@@H](C)[C@H](O)C[C@H]3C(C)(C)CCC[C@]23C)c1 [Compound No. 52, (2R,3R,4S,4aS,8aS)-4-[(3,5-dimethoxyphenyl)carbonyl]-3,4a,8,8-tetramethyl-decahydronaphthalen-2-ol] | +++ (x ≥65) |

Continued, values first:

| Scoring, Approach 1 (% increase relative to background) | SMILES |
| --- | --- |
| ++ (50 ≤ x < 65) | COc1cc(OC)cc(C(=O)[C@H]2[C@@H](C)C(=O)C[C@H]3C(C)(C)CCC[C@]23C)c1 [Compound No. 53, (3R,4S,4aS,8aS)-4-[(3,5-dimethoxyphenyl)carbonyl]-3,4a,8,8-tetramethyl-decahydronaphthalen-2-one] |
| ++ (50 ≤ x < 65) | COc1ccc(CN[C@@H]2C[C@H]3C(C)(C)CCC[C@]3(C)[C@@H](C(=O)c3cc(OC)cc(OC)c3)[C@@H]2C)cc1 [Compound No. 54, (2R,3S,4S,4aS,8aS)-4-[(3,5-dimethoxyphenyl)carbonyl]-N-[(4-methoxyphenyl)methyl]-3,4a,8,8-tetramethyl-decahydronaphthalen-2-amine] |
| + (0 < x < 50) | COc1cc(OC)cc(C(=O)[C@H]2[C@H](C)[C@H](N)C[C@H]3C(C)(C)CCC[C@]23C)c1 [Compound No. 55, (2R,3S,4S,4aS,8aS)-4-[(3,5-dimethoxyphenyl)carbonyl]-3,4a,8,8-tetramethyl-decahydronaphthalen-2-amine] |
| + (0 < x < 50) | C[C@@H]1[C@H](N)C[C@H]2C(C)(C)CCC[C@]2(C)[C@H]1C(=O)c1cc(O)cc(O)c1 [Compound No. 56, 5-{[(1S,2S,3R,4aS,8aS)-3-amino-2,5,5,8a-tetramethyl-decahydronaphthalen-1-yl]carbonyl}benzene-1,3-diol] |
| +++ (x ≥65) | C[C@H]1CC[C@H]2C(C)(C)CCC[C@]2(C)[C@H]1CCc1cc(O)cc(O)c1 [Compound No. 62, 5-{2-[(1S,2S,4aS,8aR)-2,5,5,8a-tetramethyl-decahydronaphthalen-1-yl]ethyl}benzene-1,3-diol] |
| +++ (x ≥65) | Cc1cc(O)cc(C(=O)[C@H]2[C@H](C)C(C(N)=O)C[C@H]3C(C)(C)CCC[C@]23C)c1 (stereo partly drawn) [Compound No. 65, (3S,4S,4aS,8aS)-4-[(3-hydroxy-5-methylphenyl)carbonyl]-3,4a,8,8-tetramethyl-decahydronaphthalene-2-carboxamide] |

Target: T1, His-hSHIP1 enzyme
Test: His-hSHIP1 activity, approach 2 (ratio of initial velocities IP4 25/IP4 250)
Format: biochemical
Parameters: key: +++: higher than reference or reference - 15%; ++: reference - 16% to reference - 30%; +: reference - 31% or lower
Conditions: ratio of initial velocities IP4 25/IP4 250 versus reference SHIP1 activator; asterisk in Table 2
Experimental: as §1
In the second approach, a master mix is prepared that contains […] (0.4-1.6 ng/μL final), 25 μL of the substrate, IP4 (25 or 250 μM final), and 50 μL of test compound in 3.3% ethanol ([…]). Control blanks are also prepared by replacing His-hSHIP1 enzyme, IP4, or test compounds with Phosphate Assay Buffer. […] Each reaction component is preincubated at 37° C. for 30 min before adding to a 96-well microtiter plate. The master mix is then incubated at 37° C. At time 0, 20, 25 and 30 min, 25 μL of the master mix is removed and transferred to a new 96-well microtiter plate, to which 100 μL of Biomol Green Reagent is added to stop the reaction. After incubating the mixture for 20 min at room temperature for color development, the absorbance is read with SpectraMax Plus 96-well plate reader at a wavelength of 650 nm. Phosphate released is plotted against time to calculate the initial velocities (i.e., slope of the graph) at each IP4 concentration. The initial velocities are baseline corrected and the ratio of initial velocities (IP425/IP4250) is calculated and used to rate the test compounds.

| Scoring, Approach 2 (Initial velocity Ratio) | SMILES |
| --- | --- |
| +++ | COc1cc(OC)cc(C(O)[C@@H]2[C@@]3(C)CCCC(C)(C)[C@@H]3CC[C@@]2(C)O)c1 (stereo partly drawn) [Compound No. 49, (1S,2R,4aS,8aS)-1-[(3,5-dimethoxyphenyl)(hydroxy)methyl]-2,5,5,8a-tetramethyl-decahydronaphthalen-2-ol] |
| +++ | C[C@@H]1[C@H](NC(=O)Nc2cccnc2)C[C@H]2C(C)(C)CCC[C@]2(C)[C@H]1C(=O)c1cc(O)cc(O)c1 [Compound No. 118, 3-[(2R,3S,4S,4aS,8aS)-4-[(3,5-dihydroxyphenyl)carbonyl]-3,4a,8,8-tetramethyl-decahydronaphthalen-2-yl]-1-(pyridin-3-yl)urea] |
| ++ | C[C@@H]1[C@H](NCc2cnc[nH]2)C[C@H]2C(C)(C)CCC[C@]2(C)[C@H]1C(=O)c1cc(O)cc(O)c1 [Compound No. 119, 5-{[(1S,2S,3R,4aS,8aS)-3-[(1H-imidazol-5-ylmethyl)amino]-2,5,5,8a-tetramethyl-decahydronaphthalen-1-yl]carbonyl}benzene-1,3-diol] |
| ++ | Cc1cc(O)cc(C(=O)[C@H]2[C@H](C)[C@H](N)C[C@H]3C(C)(C)CCC[C@]23C)c1 [Compound No. 136, 3-{[(1S,2S,3R,4aS,8aS)-3-amino-2,5,5,8a-tetramethyl-decahydronaphthalen-1-yl]carbonyl}-5-methylphenol] |
| ++ | Cc1cc(O)cc(C(=O)[C@H]2[C@H](C)[C@H](NCc3cnc[nH]3)C[C@H]3C(C)(C)CCC[C@]23C)c1 [Compound No. 137, 3-{[(1S,2S,3R,4aS,8aS)-3-[(1H-imidazol-5-ylmethyl)amino]-2,5,5,8a-tetramethyl-decahydronaphthalen-1-yl]carbonyl}-5-methylphenol] |
